Measurements taken from patent US20080165354A1, “Method and Apparatus For Dissolving Solid Matter in Liquid” (priority 2005, published 2008).
“Also recorded” adds a separate entry of the source.

Legend:
[1] = In situ Raman spectroscopic solid state analysis of the dissolving tablet in a flow-through chamber; type: physicochemical; settings: same setup as Example 1, flow rate 20 ml/min
Description: Dissolution testing was carried out employing simultaneous liquid/solid phase analysis. A modified flow-through dissolution method was used, in which • the concentration of the medium was measured with a UV-Vis spectrophotometer and • a simultaneous solid state analysis on the dissolving tablet in a flow-through chamber was performed using an in situ Raman spectroscopic analysis. The dissolution testing setup consisted of the flow-through cell, liquid reservoir (V=500 ml) and a peristaltic pump that circulates the medium (pump speed=70 rpm 9,3 ml/min). The dissolution medium used in the experiments was distilled water (room temperature). The Raman spectra were collected using a Raman spectrometer (Control Development, South Bend, Ind., USA) with a diode laser (Starbright 785 S, Torsana Laser Technologies, Skodsborg, Denmark) at 785 nm. A fiber optic sampling probe (InPhotonics, Norwood, MA, USA) was used. The spectral range measured was 2200-100 cm^−1 at a resolution of 5 cm^−1.

[2] = Flow-through dissolution test, concentration of the dissolution medium by in-line UV-Vis spectrophotometer; type: physicochemical; settings: same setup as Example 1, flow rate 20 ml/min
Description: Dissolution testing was carried out employing simultaneous liquid/solid phase analysis. A modified flow-through dissolution method was used, in which • the concentration of the medium was measured with a UV-Vis spectrophotometer and • a simultaneous solid state analysis on the dissolving tablet in a flow-through chamber was performed using an in situ Raman spectroscopic analysis. The dissolution testing setup consisted of the flow-through cell, liquid reservoir (V=500 ml) and a peristaltic pump that circulates the medium (pump speed=70 rpm 9,3 ml/min). The dissolution medium used in the experiments was distilled water (room temperature).

Structure (SMILES): O=C1CN(/N=C/c2ccc([N+](=O)[O-])o2)C(=O)N1 [NF anhydrate, Nitrofurantoin]
- solid phase transformation during dissolution [1]: solid phase transformation of NF anhydrate to NF monohydrate (II); also recorded: an order of magnitude slower than that of TP anhydrate
- changes of the dissolution rate [2]: more complicated when compared to changes in the dissolution rate of TP
